# Test results taken from US20260251625A1, “METHOD FOR DETERMINING THE DEGREE OF OXIDATIVE DEGRADATION OF POLYSORBATE 20 IN AQUEOUS FORMULATIONS” (Boehringer Ingelheim International GmbH, priority 2021, published 2026).
# Test: AAPH-induced oxidative stress of aqueous polysorbate 20 solution, PEG-6-laurate oxidation marker by LC-MS P6L
# Format: physicochemical
# Conditions: 1.5 mM AAPH
# Method: Specifically, oxidative stress is applied to the aqueous polysorbate 20 solution using 1.5 mM 2,2′-azobis-2-methyl-propanimidamide, dihydrochloride (AAPH). The details of the sample preparation are explained in the experimental section under chapter “1.1 Materials”, point “c) Sample preparation of artificially stressed polysorbate 20”.
# 1.5 mM 2,2′-azobis-2-methyl-propanimidamide, dihydrochloride (AAPH) was added to a 0.040 mg/ml aqueous polysorbate 20 solution. The polysorbate 20 solution was stressed for 40 h at 50° C.
# 1.5 mM 2,2′-azobis-2-methyl-propanimidamide, dihydrochloride (AAPH) was added to a 0.040 mg/ml aqueous polysorbate 20 solution. The polysorbate 20 solution was stressed for 35 h at 50° C. After 0, 1, 3, 8, 12, 24 and 35 h samples were taken from the solution and immediately frozen at −20° C. in order to stop the degradation at each time point. […]
# The separated species were then ionized with heated electrospray ionization (HESI) source (Ion Max Ion source with HESI probe, Thermo Fisher Scientific). […] Ions generated were detected in the mass spectrometer (LTQ, Thermo Fisher Scientific). […] PEG-6-laurate was evaluated by generating extracted ion chromatograms (EIC's) out of the full scan data to get peak areas of selected compounds using LCquan™ (Software for quantitative analysis of liquid chromatography).
substance,measurement,setting,value
polyethylene glycol-6-laurate,"increase of peak eluting at about 18.4 min, AAPH-stressed vs unstressed sample","m/z about 227 amu, 40 h at 50° C.",approximately 3.4 fold
same,relative peak area of polyethylene glycol-6-laurate over stress time,"reference T0, 50° C., 0-35 h",increase up to the sampling time point T4 (12 h)
